Measurements taken from publication PMC7876106 (Scientific Reports, 2021).

How the values were obtained:
G4 telomere DNA = assay: ChIP with BG4 antibody for G4 telomere DNA in LOX cells; format: cell-based, human; details: 2 μM, 2 days
Procedure: DNA ChIP assays was performed as described previously 3 with minor modifications. Briefly, 1 x 10^7 LOX cells treated with indicated chemicals (2 µM) for 48 hrs were subject to ChIP analysis and immunoprecipitated DNA was assayed by DNA dot-blot using 32P-labeled (TTAGGG)4 or Alu probe. […]

[1] = test system: TERRA (unlabelled) (RNA, G4) UUAGGGUUAGGGUUAGGGUUAGGG; assay: circular dichroism; details: 150 mM KCl; 20 mM HEPES pH 7.5, 20% PEG8000, 4 °C, 10 μM RNA, mixed 1:1 molar ratio
TRF2-TERRA = assay: HTRF assay, disruption of TERRA and TRF2 peptide interaction; format: binding; details: compared to BRACO-19
Procedure: Mei et al, 2020 TERRA Requires TRF2 GAR Domain
Homogenous Time Resolved Fluorescence (HTRF) assay
All material including peptide, nucleic acids and compounds were dissolved in buffer containing 20mM HEPES pH7.5 150mM KCl. To measure the direct interaction between peptide and nucleic acids, 5µL of FITC-labeled TRF2 GAR peptide was added into each 384 well with a sequential of 2-fold dilution starting from 200nM, 5µL of 10nM biotin-labeled nucleic acid was then added into the well and fixed with the peptide, 5µL of buffer was added to make each well contain 15µL solution. The plate was incubated at room temperature for 30 minutes, following by adding 5µL of streptavidin-Tb-cryptate (Cisbio, PerkinElmer) and the plate was then incubated at room temperature for another 30 minutes before measured by EnVision plate reader (330/520 nm). To measure the compound disruption on peptide and nucleic acids, 5µL of small molecule was added into each 384 well first with a sequential of 2-fold dilution starting from 5µM, followed by 5µL of 10nM nucleic acid and 100nM peptide and then the plate was incubated at room temperature for 30 minutes. The rest step was similar to the direct binding measurement assay. The curves were analyzed using Prism 8.0. […]
Total RNA was isolated as previously described by using TRIzol reagent (Invitrogen) 1. […] RNA concentration was determined by Nanodrop-2000 (ThermoFisher). […]

CCc1c(C)c2cc3nc(cc4nc(cc5c(CC)c(C)c(cc1[nH]2)n5C)C(C)=C4CCC(=O)O)C(CCC(=O)O)=C3C [NMM, N-methyl mesoporphyrin IX]
G4 telomere DNA (BG4 ChIP) relative to PP or PDS treated cells (G4 telomere DNA): significant reduction in G4 telomere DNA | binding [1]: yes | inhibition of TRF2-TERRA by HTRF (TRF2-TERRA): preferential inhibition of TRF2-TERRA
